Test results as given in patent US11566007B2, “Ras inhibitors” (Revolution Medicines, Inc., priority 2019, dated 2023).

Legend:
NRAS G12C = NRAS G12C (Homo sapiens (Human), UniProt P01111+P62937, G12C); experiment: Ras-Raf (BRAF RBD) disruption / FRET / MOA assay, NRAS G12C; format: biochemical; conditions: read-out: IC50* NRAS G12C FRET data
Method in brief: (§1)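 Compound-driven ternary complex of nucleotide-loaded Ras with cyclophilin A, disrupting BRAF RBD binding. 10-point 3-fold dilution from 30 μM final, 3 h at 25° C, then anti-His Eu-W1024 (10 nM) and anti-GST allophycocyanin (50 nM) for 1.5 h. IC50 from TR-FRET ratio decrease versus DMSO.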

[1] = test system: NCI-H358 cells (K-Ras G12C); experiment: Potency assay: pERK in NCI-H358 cells; format: cell-based, human; conditions: Homo sapiens, NCI-H358; H358 KRAS G12C; read-out: pERK EC50
Method in brief: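 Compounds are dosed as ten 3-fold dilutions from a 10 mM DMSO stock, in duplicate, and left on cells for 4 h at 37 °C, 5% CO2. Phospho-ERK1/2 is then quantified by AlphaLISA SureFire Ultra or In-Cell Western, and IC50 is derived from a 4-parameter sigmoid against log concentration.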

KRAS G12V = KRAS G12V (Homo sapiens (Human), UniProt P01116+P62937, G12V); experiment: Ras-Raf (BRAF RBD) disruption / FRET / MOA assay, KRAS G12V; format: biochemical; conditions: read-out: IC50* KRAS G12V FRET data
Sequence of KRAS G12V (P01116-2 other isoform, or with tags, fused parts or gaps G12V): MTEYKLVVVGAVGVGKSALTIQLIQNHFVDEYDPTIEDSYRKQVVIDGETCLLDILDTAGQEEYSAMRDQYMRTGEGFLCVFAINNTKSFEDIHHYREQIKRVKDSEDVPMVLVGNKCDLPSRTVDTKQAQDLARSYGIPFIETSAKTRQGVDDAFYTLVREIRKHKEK
Sequence of KRAS G12V (P62937 whole entry): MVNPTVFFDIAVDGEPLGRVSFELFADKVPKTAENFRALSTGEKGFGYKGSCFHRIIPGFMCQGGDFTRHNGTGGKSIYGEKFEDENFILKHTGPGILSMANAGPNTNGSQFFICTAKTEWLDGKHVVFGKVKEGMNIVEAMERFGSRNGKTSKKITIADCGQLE
Method in brief: as §1

KRAS G12S = KRAS G12S (Homo sapiens (Human), UniProt P01116+P62937, G12S); experiment: Ras-Raf (BRAF RBD) disruption / FRET / MOA assay, KRAS G12S; format: biochemical; conditions: Ras-Raf disruption/FRET/MOA assay; class symbols; read-out: KRAS G12S FRET data IC50
Sequence of KRAS G12S (P01116-2 other isoform, or with tags, fused parts or gaps G12S): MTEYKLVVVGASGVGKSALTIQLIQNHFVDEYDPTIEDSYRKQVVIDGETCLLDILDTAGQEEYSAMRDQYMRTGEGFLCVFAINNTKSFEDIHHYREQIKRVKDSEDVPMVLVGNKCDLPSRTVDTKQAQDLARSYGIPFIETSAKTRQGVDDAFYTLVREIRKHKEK
Sequence of KRAS G12S (P62937 whole entry): as the sequence (P62937 whole entry) above
Method in brief: as §1

K-Ras G13C = K-Ras G13C (Homo sapiens (Human), UniProt P01116+P62937, G13C); experiment: Ras-Raf (BRAF RBD) disruption / FRET / MOA assay, KRAS G13C; format: biochemical; conditions: KRAS G13C; Ras-Raf disruption/FRET/MOA assay; read-out: IC50* KRAS G13C FRET data
Sequence of K-Ras G13C (P01116-2 other isoform, or with tags, fused parts or gaps G13C): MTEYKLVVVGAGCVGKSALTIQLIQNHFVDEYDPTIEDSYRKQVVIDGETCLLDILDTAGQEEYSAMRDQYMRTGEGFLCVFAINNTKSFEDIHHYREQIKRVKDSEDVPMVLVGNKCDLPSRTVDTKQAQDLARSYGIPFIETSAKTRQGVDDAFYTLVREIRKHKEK
Sequence of K-Ras G13C (P62937 whole entry): as the sequence (P62937 whole entry) above
Method in brief: as §1

KRAS WT = KRAS WT (Homo sapiens (Human), UniProt P01116+P62937); experiment: Ras-Raf (BRAF RBD) disruption / FRET / MOA assay, KRAS WT; format: biochemical; conditions: read-out: IC50* KRAS WT FRET data
Sequence of KRAS WT (P01116-2 other isoform, or with tags, fused parts or gaps): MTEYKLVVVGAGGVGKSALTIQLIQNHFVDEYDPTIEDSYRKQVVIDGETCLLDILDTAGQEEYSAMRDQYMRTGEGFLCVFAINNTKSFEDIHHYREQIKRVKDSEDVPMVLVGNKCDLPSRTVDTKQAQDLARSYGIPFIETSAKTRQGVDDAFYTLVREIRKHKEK
Sequence of KRAS WT (P62937 whole entry): as the sequence (P62937 whole entry) above
Method in brief: as §1

K-Ras G12C = K-Ras G12C (Homo sapiens (Human), UniProt P01116+P62937, G12C); experiment: Ras-Raf (BRAF RBD) disruption / FRET / MOA assay, KRAS G12C; format: biochemical; conditions: KRAS G12C; Ras-Raf disruption/FRET/MOA assay; read-out: IC50* KRAS G12C FRET data
Sequence of K-Ras G12C (P01116-2 other isoform, or with tags, fused parts or gaps G12C): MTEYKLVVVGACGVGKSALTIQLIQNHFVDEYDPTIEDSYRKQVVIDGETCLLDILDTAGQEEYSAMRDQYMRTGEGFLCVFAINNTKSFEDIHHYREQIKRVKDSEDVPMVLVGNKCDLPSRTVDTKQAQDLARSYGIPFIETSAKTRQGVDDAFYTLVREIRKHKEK
Sequence of K-Ras G12C (P62937 whole entry): as the sequence (P62937 whole entry) above
Method in brief: as §1

KRAS G12D = KRAS G12D (Homo sapiens (Human), UniProt P01116+P62937, G12D); experiment: Ras-Raf (BRAF RBD) disruption / FRET / MOA assay, KRAS G12D; format: biochemical; conditions: Ras-Raf disruption/FRET/MOA assay; class symbols; read-out: KRAS G12D FRET data IC50
Sequence of KRAS G12D (P01116-2 other isoform, or with tags, fused parts or gaps G12D): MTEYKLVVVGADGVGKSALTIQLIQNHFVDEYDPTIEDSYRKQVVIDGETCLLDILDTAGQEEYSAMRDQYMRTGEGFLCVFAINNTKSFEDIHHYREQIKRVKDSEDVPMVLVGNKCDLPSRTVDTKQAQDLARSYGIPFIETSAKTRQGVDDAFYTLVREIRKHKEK
Sequence of KRAS G12D (P62937 whole entry): as the sequence (P62937 whole entry) above
Method in brief: as §1

KRAS G13D = KRAS G13D (Homo sapiens (Human), UniProt P01116+P62937, G13D); experiment: Ras-Raf (BRAF RBD) disruption / FRET / MOA assay, KRAS G13D; format: biochemical; conditions: read-out: IC50* KRAS G13D FRET data
Sequence of KRAS G13D (P01116-2 other isoform, or with tags, fused parts or gaps G13D): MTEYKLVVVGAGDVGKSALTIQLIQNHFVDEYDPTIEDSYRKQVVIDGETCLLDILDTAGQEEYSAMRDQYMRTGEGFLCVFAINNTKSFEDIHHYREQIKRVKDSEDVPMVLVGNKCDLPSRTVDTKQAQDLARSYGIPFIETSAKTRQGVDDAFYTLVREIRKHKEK
Sequence of KRAS G13D (P62937 whole entry): as the sequence (P62937 whole entry) above
Method in brief: as §1

NCI-H358 (K-Ras G12C) = experiment: CellTiter-Glo cell viability assay, NCI-H358; format: cell-based, human; conditions: Homo sapiens, NCI-H358, 120 h, NCI-H358, 5-day treatment; class symbols; read-out: Additional H358 Cell Viability assay data (K-Ras G12C, IC50)
Method in brief: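 Luminescent viability readout on day 5 after direct compound addition to plated cells; plates sat ~30 min at room temperature before reading. Values expressed as percent of mean DMSO signal, curves fit with a four-parameter logistic model.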

Sequence of NRAS G12C (P01111 whole entry G12C): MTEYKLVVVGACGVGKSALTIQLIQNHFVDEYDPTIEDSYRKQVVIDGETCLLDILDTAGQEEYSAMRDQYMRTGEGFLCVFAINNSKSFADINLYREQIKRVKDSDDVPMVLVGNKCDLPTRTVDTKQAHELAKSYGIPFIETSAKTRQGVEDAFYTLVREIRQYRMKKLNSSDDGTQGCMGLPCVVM
Sequence of NRAS G12C (P62937 whole entry): as the sequence (P62937 whole entry) above

Row | SMILES | IC50 (NRAS G12C) [µM] | EC50 [1] [µM] | IC50 (KRAS G12V) [µM] | IC50 (KRAS G12S) [µM] | IC50 (K-Ras G13C) [µM] | IC50 (KRAS WT) [µM] | IC50 (K-Ras G12C) [µM] | IC50 (KRAS G12D) [µM] | IC50 (KRAS G13D) [µM] | IC50 (NCI-H358 (K-Ras G12C)) [µM]
1 | C=CC(=O)N1CC[C@H](C(=O)N(C)[C@H](C(=O)N[C@H]2Cc3cc(O)cc(c3)-c3ccc4c(c3)c(c(-c3cc(CN(C)C)cnc3[C@H](C)OC)n4CC)CC(C)(C)COC(=O)[C@@H]3CCCN(N3)C2=O)C(C)C)C1 (atropisomer, axis not shown) [Example A536] | 0.01 to 0.1 | < 5 | 0.1 to 1 | 0.1 to 1 | 0.1 to 1 | 0.1 to 1 | 0.01 to 0.1 | 1 to 10 | 0.1 to 1 | 0.01 to 0.1
2 | CCn1c(-c2cccnc2[C@H](C)OC)c2c3cc(ccc31)-c1cc(cc(C(F)F)c1)C[C@H](NC(=O)C(COC1CN(C(=O)C#CC(C)(C)N(C)C)C1)C(C)C)C(=O)N1CCC[C@H](N1)C(=O)OCC(C)(C)C2 (mixture of isomers) [Example A404] | 0.1 to 1 | < 5 | > 10 | > 10 | > 10 | > 10 | 0.1 to 1 | > 10 | > 10 | 0.01 to 0.1
3 | C=CC(=O)N1CC(OCC(C(=O)N[C@H]2Cc3cccc(c3)-c3ccc4c(c3)c(c(-c3cccnc3[C@H](C)OC)n4CC(F)(F)F)CC(C)(C)COC(=O)[C@@H]3CCCN(N3)C2=O)C(C)C)C1 (mixture of isomers) [Example A453] | 1 to 10 | < 5 | > 10 | > 10 | > 10 | > 10 | 1 to 10 | > 10 | > 10 | 0.1 to 1
4 | C=CC(=O)N1CC(OCC(C(=O)N[C@H]2Cc3nc(cs3)-c3ccc4c(c3)c(c(-c3cccnc3[C@H](C)OC)n4CC)CC(C)(C)COC(=O)[C@@H]3CCCN(N3)C2=O)C(C)C)C1 (mixture of isomers) [Example A473] | 0.1 to 1 | < 5 | 1 to 10 | 1 to 10 | 1 to 10 | 1 to 10 | 0.1 to 1 | > 10 | 1 to 10 | 0.01 to 0.1
5 | CCn1c(-c2cccnc2[C@H](C)OC)c2c3cc(ccc31)-c1cccc(c1)C[C@H](NC(=O)[C@H](C(C)C)N(C)C(=O)[C@H]1CCN(C(=O)C#CC3CCO3)C1)C(=O)N1CCC[C@H](N1)C(=O)OCC(C)(C)C2 (mixture of isomers) [Example A509] | < 0.01 | < 5 | 1 to 10 | 1 to 10 | 0.1 to 1 | 1 to 10 | < 0.01 | > 10 | 1 to 10 | < 0.01
6 | CCn1c(-c2cccnc2[C@H](C)OC)c2c3cc(ccc31)-c1csc(n1)C[C@H](NC(=O)[C@H](C(C)C)N1CC[C@@]3(CCN(C(=O)C#CC(C)(C)N(C)C)C3)C1=O)C(=O)N1CCC[C@H](N1)C(=O)OCC(C)(C)C2 (single isomer, unassigned) [Example A425] | 0.01 to 0.1 | < 5 | > 10 | 1 to 10 | 0.1 to 1 | > 10 | < 0.01 | > 10 | > 10 | < 0.01
7 | C=CC(=O)N1CC[C@H](C(=O)N(C)[C@H](C(=O)N[C@H]2Cc3cc(O)cc(c3)-c3ccc4c(c3)c(c(-c3ccc(CN(C)C)nc3COC)n4CC)CC(C)(C)COC(=O)[C@@H]3CCCN(N3)C2=O)C(C)C)C1 [Example A103] | 0.01 to 0.1 | < 5 | 0.1 to 1 | 0.1 to 1 | 1 to 10 | 1 to 10 | 0.01 to 0.1 | 1 to 10 | 1 to 10 | 0.1 to 1
8 | C=CC(=O)N1CC[C@H](C(=O)N(C)[C@@H](C(=O)N[C@H]2Cc3cc(O)cc(c3)-c3ccc4c(c3)c(c(-c3cccc(CN(C)C)c3)n4CC)CC(C)(C)COC(=O)[C@@H]3CCCN(N3)C2=O)C(C)C)C1 [Example A106] | 1 to 10 | < 5 | > 10 | > 10 | > 10 | > 10 | 1 to 10 | > 10 | > 10 | 0.1 to 1
9 | CCn1c(-c2cncnc2)c2c3cc(ncc31)-c1cc(O)cc(c1)C[C@H](NC(=O)[C@H](C(C)C)N(C)C(=O)[C@H]1CCN(C(=O)C#CCN(C)C)C1)C(=O)N1CCC[C@H](N1)C(=O)OCC(C)(C)C2 [Example A108] | < 0.01 | < 5 | 1 to 10 | 1 to 10 | 0.01 to 0.1 | 1 to 10 | < 0.01 | 1 to 10 | 1 to 10 | < 0.01
10 | C=CC(=O)N1CC[C@H](C(=O)N(C)[C@H](C(=O)N[C@H]2Cc3cc(O)cc(c3)-c3ccc4c(c3)c(c(-c3cc(CN(C)C)nn3C)n4CC)CC(C)(C)COC(=O)[C@@H]3CCCN(N3)C2=O)C(C)C)C1 [Example A109] | 0.1 to 1 | < 5 | 1 to 10 | 1 to 10 | > 10 | > 10 | 0.1 to 1 | > 10 | > 10 | 0.1 to 1
11 | C=CC(=O)N(C)[C@H](C(=O)N[C@H]1Cc2cc(O)cc(c2)-c2ccc3c(c2)c(c(-c2cccnc2COC)n3CC)CC(C)(C)COC(=O)[C@@H]2CCCN(N2)C1=O)C(C)C [Example A110] | 1 to 10 | < 5 | 1 to 10 | 1 to 10 | 0.1 to 1 | 0.1 to 1 | 0.1 to 1 | 1 to 10 | 1 to 10 | 0.1 to 1
12 | C=CC(=O)N1CC[C@H](C(=O)N(C)[C@H](C(=O)N[C@H]2Cc3cc(O)cc(c3)-c3ccc4c(c3)c(c(-c3ccc(CN(C)C)c(COC)c3)n4CC)CC(C)(C)COC(=O)[C@@H]3CCCN(N3)C2=O)C(C)C)C1 [Example A111] | 0.1 to 1 | < 5 | 1 to 10 | 1 to 10 | 1 to 10 | 1 to 10 | 0.1 to 1 | > 10 | 1 to 10 | 0.01 to 0.1
13 | C=CC(=O)N1CC[C@H](C(=O)N(C)[C@H](C(=O)N[C@H]2Cc3cc(O)cc(c3)-c3ccc4c(c3)c(c(-c3cnccc3[C@H](C)OC)n4CC)CC(C)(C)COC(=O)[C@@H]3CCCN(N3)C2=O)C(C)C)C1 [Example A112] | 0.1 to 1 | < 5 | 1 to 10 | 1 to 10 | 1 to 10 | 1 to 10 | 0.1 to 1 | > 10 | 1 to 10 | 0.01 to 0.1
14 | CCn1c(-c2ccccc2CN(C)C)c2c3cc(ccc31)-c1cc(O)cc(c1)C[C@H](NC(=O)[C@H](C(C)C)N(C)C(=O)c1ncc(NC(=O)/C=C/CN(C)C)n1C)C(=O)N1CCC[C@H](N1)C(=O)OCC(C)(C)C2 [Example A116] | < 0.01 | < 5 | > 10 | > 10 | 0.01 to 0.1 | 1 to 10 | < 0.01 | 1 to 10 | 1 to 10 | 0.1 to 1
15 | C=CC(=O)N(C)CCC(=O)N(C)[C@H](C(=O)N[C@H]1Cc2cc(O)cc(c2)-c2ccc3c(c2)c(c(-c2cccnc2COC)n3CC)CC(C)(C)COC(=O)[C@@H]2CCCN(N2)C1=O)C(C)C [Example A117] | 0.1 to 1 | < 5 | 1 to 10 | 1 to 10 | 0.1 to 1 | 1 to 10 | 0.1 to 1 | > 10 | 1 to 10 | 0.1 to 1
